One assay relates to HeLa cells. Briefly: Mitotic spindle / centrosome phenotype in HeLa cells (tubulin and DAPI staining, live imaging). The format is cell-based, human. As for the experimental part:
There were more rounded mitotic cells after C75 treatment in comparison to the control. FIG. 1B) is a line graph showing the percentage of HeLa and HFF1 cells in mitosis after treatment with various concentrations of C75 for 8 hours. The bars indicate standard deviation. FIG. 1C) is a series of images showing cells that were fixed and co-stained for tubulin (microtubules) and DAPI (DNA). Treatment of HeLa cells with 300 nM C75 caused the mitotic spindles to be disorganized, while they were not affected in HFF1 cells. […] The scale bar for the cells is 10 μm. FIG. 1D) is a cartoon schematic showing the key features of a metaphase cell.
(§1) FIG. 2A) is a line graph showing the percentage of HCT116 (p53−/−) cells, A549 cells, HeLa cells and H1299 cells in mitosis after treatment with various concentrations of C75 for one population doubling time. All of the cell lines show an increase in the proportion of mitotic cells after treatment with 200 nM C75. The bars indicate standard deviation. […] While the mitotic spindles were not dramatically altered by C75 in HFF1 cells, they were monopolar (as shown) or fragmented in the other cell types. […] The mitotic spindles were more strongly fragmented after C75 treatment in these cells vs. the cells in FIG. 2B). […] While mitotic spindles recovered bipolarity after removing nocodazole, they remained multipolar after removing C75. FIG. 2F) is a series of time-lapse images of a live HeLa cell expressing GFP:tubulin after treatment with C75 as shown in 2D) and 2E). The scale bar for all cells is 10 μm. FIG. 2G) is a schematic showing the putative target for C75. Healthy cells have two centrosomes that separate and form a bipolar spindle, while cancer cells have aberrant centrosomes that cluster to form ‘pseudo’ bipolar spindles, and C75 may target this process and their integrity.
FIG. 3A) is a line graph showing the percentage of mitotic HeLa or HFF1 cells treated with a range of paclitaxel (Taxol™; tubulin-targeting drug) concentrations+/−C75 as indicated. The bars indicate standard deviation. FIG. 3B) is a series of bar graphs showing the proportion of HCT116 cells that have monopolar spindles, bipolar spindles with aligned chromosomes, bipolar spindles with misaligned chromosomes and multipolar/fragmented spindles after treatments as shown. Treatments include DMSO (control), varying concentrations of paclitaxel and/or varying concentrations of C75 after 7 hours. While treatment of HCT116 cells with 2.5 nM paclitaxel caused a threshold of mitotic spindle phenotypes, adding increasing concentrations of C75 in combination with 2.5 nM paclitaxel caused the phenotypes to progressively worsen. FIG. 3C) is bar graph showing the average distance between centrosome fragments in HCT116 cells after treatments as shown. While centrosome fragments moved closer together with increased concentrations of paclitaxel, they moved further apart with increased concentrations of C75. […] FIG. 3E) is a line graph showing the percentage of mitotic HeLa or HFF1 cells treated with a range of nocodazole concentrations+/−C75 as indicated. The bars indicate standard deviation. FIG. 3F) is a series of images showing fixed HeLa cells after treatment with C75+/− nocodazole co-stained for tubulin, γ-tubulin and DNA (DAPI). […] Adding nocodazole to cells treated with 300 nM C75 caused mitotic spindle phenotypes to worsen and appear more similar to those after treatment with 600 nM C75. The scale bar for all cells is 10 μm. FIG. 3G) is a bar graph showing the percentage of phenotypes observed for metaphase HeLa cells treated with nocodazole or C75, or both for 20 minutes (n>15 per treatment).
Spindle fragmentation only occurred after extensive microtubule depolymerization in colchicine-treated cells, while the spindle poles fragmented prior to changes in microtubules after C75 treatment. The scale bar for all cells is 10 μm.
C75 was further tested and found to cause mitotic arrest in HeLa cells. […]

The test system of the next assay is HCT116 cells. Kind of assay: Mitotic spindle phenotype and centrosome fragment distance in HCT116 cells. It is filed as cell-based. To be noted: HCT116, paclitaxel alone. The procedure: as §1
FIG. 3A) is a line graph showing the percentage of mitotic HeLa or HFF1 cells treated with a range of paclitaxel (Taxol™; tubulin-targeting drug) concentrations+/−C75 as indicated. The bars indicate standard deviation. FIG. 3B) is a series of bar graphs showing the proportion of HCT116 cells that have monopolar spindles, bipolar spindles with aligned chromosomes, bipolar spindles with misaligned chromosomes and multipolar/fragmented spindles after treatments as shown. Treatments include DMSO (control), varying concentrations of paclitaxel and/or varying concentrations of C75 after 7 hours. While treatment of HCT116 cells with 2.5 nM paclitaxel caused a threshold of mitotic spindle phenotypes, adding increasing concentrations of C75 in combination with 2.5 nM paclitaxel caused the phenotypes to progressively worsen. FIG. 3C) is bar graph showing the average distance between centrosome fragments in HCT116 cells after treatments as shown. While centrosome fragments moved closer together with increased concentrations of paclitaxel, they moved further apart with increased concentrations of C75. […] FIG. 3E) is a line graph showing the percentage of mitotic HeLa or HFF1 cells treated with a range of nocodazole concentrations+/−C75 as indicated. The bars indicate standard deviation. […]
C75 was also tested for efficacy in different cancer cell lines. […] To further assess the role of C75 in affecting centrosomes, HeLa cells were treated with C75 for a short period of time (5 minutes), then C75 was removed and the cells were analyzed for spindle phenotypes (schematic in FIG. 2D). […]

The test system of assay [1] is HeLa (cervical adenocarcinoma) cells. Kind of assay: IC50 (viability) in HeLa cells. The format is cell-based, human. To be noted: for IC50: Homo sapiens, HeLa cells, cells printed in nM; for efficacy (effect on viability) in cancer cells vs. non-cancer cells: comparison of Table 3 IC50 values. As for the experimental part:
(§2) 19 variants with different structural modifications have been made. […] In particular, it is shown that C75 causes death in multiple cancer cells with IC50 values in the 100 nM range, including breast cancers (MCF7, BT549), lung cancer (A549), colorectal cancer (HCT116) in addition to HeLa cells (cervical cancer).

In assay [2] the test system is A549 (lung carcinoma) cells. Briefly: IC50 (viability) in A549 cells. The format is cell-based. The settings on record: Homo sapiens. As for the experimental part:
as §2

The subject of assay [3] is BT549 (breast ductal carcinoma) cells. Briefly: IC50 (viability) in BT549 cells. It is filed as cell-based. To be noted: Homo sapiens, BT-549. As for the experimental part: as §2
In assay [4] the test system is MCF-7 (mammary gland carcinoma) cells. Briefly: IC50 (viability) in MCF-7 cells. The format is cell-based. The settings on record: Homo sapiens, MCF7. As for the experimental part: as §2
In assay [5] the test system is MCF-10A (mammary gland fibrocystic disease) non-cancer cells. Kind of assay: IC50 (viability) in MCF-10A non-cancer cells. The format is cell-based. The settings on record: Homo sapiens, MCF10A non-cancer cells. As for the experimental part: as §2
In assay [6] the test system is HFF1 (fibroblast) non-cancer cells. Briefly: IC50 (viability) in HFF1 non-cancer cells. The format is cell-based. To be noted: Homo sapiens; HFF-1 non-cancer cells. As for the experimental part:
as §2

This note sets out measurements from patent publication US11034702B2, “Thienoisoquinolines and their derivatives for the treatment of cancer” (VALORBEC, SOCIÉTÉ EN COMMANDITE, priority 2016, dated 2021).

Take `COc1cc2c(c(OC)c1OC)-c1ccc(OC)c(=O)cc1[C@@H](NC(C)=O)CC2` [colchicine, reference compound]: the “spindle phenotype at lower concentrations” value in the assay with HeLa cells (HeLa, 8 hours, 30 nM colchicine or 300 nM C75) is listed as “bipolar spindles with less robust microtubules”. Besides, in the assay with HeLa cells (HeLa, 8 hours, 40 or 50 nM colchicine, 400 or 500 nM C75), the “spindle phenotype at higher concentrations” value was “fragmented spindles, but only after extensive loss of microtubules”.
With `CC(=O)O[C@H]1C(=O)[C@@]2(C)[C@H]([C@H](OC(=O)c3ccccc3)[C@]3(O)C[C@H](OC(=O)[C@H](O)[C@@H](NC(=O)c4ccccc4)c4ccccc4)C(C)=C1C3(C)C)[C@]1(OC(C)=O)CO[C@@H]1C[C@@H]2O` [paclitaxel, reference compound], in the assay on HCT116 cells, the “change of centrosome fragment distance with increased paclitaxel concentration” value is “significant decrease in fragment distance”.
The term IC50 denotes the concentration that gives 50% inhibition. For the molecule `O=S(=O)(c1cccs1)N1Cc2ccccc2-c2sccc21` [Compound C87], the IC50 in assay [1] was determined as 845 nM; in assay [2], 750 nM; in assay [3] it was 4200 nM; in assay [4], 2460 nM; in assay [5], 539 nM.
For the molecule `COc1ccc(S(=O)(=O)N2Cc3ccccc3-c3sc(I)cc32)cc1` [Compound C207], the “efficacy (effect on viability) in cancer cells vs. non-cancer cells” value in assay [1] was “higher efficacy”.
In the case of `Cc1ccc(S(=O)(=O)N2Cc3ccccc3-c3sccc32)cc1` [Compound C91], the IC50 in assay [1] turned out to be 197 nM; in assay [6], 920 nM; in assay [4], 1020 nM. Besides, the “efficacy (effect on viability) in cancer cells vs. non-cancer cells” value in assay [1] is listed as “higher efficacy”.
Turning to `COC(=O)Nc1nc2ccc(C(=O)c3cccs3)cc2[nH]1` [nocodazole, reference compound], the “spindle phenotype after drug wash-out” value in the assay on HeLa cells (metaphase HeLa, 5 minutes treatment, washed out, imaged after 40 minutes) is “bipolar spindles reformed”. Also, the “spindle phenotype, drugs alone vs. together” value in the assay on HeLa cells (metaphase HeLa, nocodazole or C75 or both, 20 minutes) is reported as “bipolar spindles with weak microtubules”.
